From patent US9974305B2, “Fungicidal or bactericidal composition, and method for controlling diseases” (NISSAN CHEMICAL INDUSTRIES, LTD., priority 2014, dated 2018) come the findings set out here.

Data set [1] deals with rice sheath blight fungus (Rhizoctonia solani). Nature of the data set: Efficacy test on rice sheath blight, spray treatment and prevention test (Test Examples 5-6). Format: in vivo. The note with it: single compound 250 ppm, lesion height. On the procedure: An agent comprising the following compound listed in Table 2 (active ingredient A) and the compound listed in Table 6 (C17: active ingredient B) as active ingredients, was prepared in accordance with the above Formulation Example. The agent was diluted with water to a predetermined concentration to obtain a test solution. Then, in a plastic pot of 90 cm^3, rice (Nipponbare) was seeded by 5 grains in one place, and to the grown seedlings in 4 seedling phase, the test solution was applied by a spray gun in an amount of 5 ml per pot, for treatment.
One day after the treatment, 1 g of mycelium flora of rice sheath blight fungus (Rhizoctonia solani) cultured in bran medium, was put by […] to a close-to-ground part of seedlings, and the pot was placed in a moist chamber set in temperature of 25° C. and humidity more than 95% RH for eight days. The height of the lesions which appeared in the highest position from the close-to-ground part (lesion height) was investigated, and the preventive value was calculated in accordance with the following formula. Preventive value=[1−(treated plot lesion height/untreated plot lesion height)]×100
Further, from the preventive value for each agent concentration, synergy was calculated by using the Colby method (Colby S. R. 1976, Weeds 15, 20-22).
Using the following compound listed in Table 2 (active ingredient A) and the compound listed in Table 6 (C17: active ingredient B) as active ingredients, a preventive test on rice sheath blight was conducted in accordance with the above Test Example 5.

Data set [2] deals with wheat glume blotch (Leptosphaeria nodorum). In words: Efficacy test on wheat glume blotch, seed treatment (Test Example 9). Format: in vivo. The note with it: single compound. As to the method:
An agent comprising the following compound listed in Table 2 (active ingredient A) and the compound listed in Table 11 (H35: active ingredient B) as active ingredients, was prepared in accordance with the above Formulation Example. This agent was diluted with water to a predetermined concentration to obtain a test solution. A predetermined amount of the test solution was put in a glass bottle of 5 ml, and 0.5 g (approximately 15 grains) of wheat seeds (variety: Haruyutaka) were added, stirred and air-dried. In each pot with a diameter of 7 cm having soil put therein, 3 grains were seeded and grown for 14 days. To seedlings of the wheat (variety: Haruyutaka) grown to a 1-leaf stage, a spore suspension (100,000 cfu/ml) of wheat glume blotch (Leptosphaeria nodorum) was spray-inoculated, and the pot was placed in a moist chamber set in temperature of 20° C. and humidity more than 95% RH for 48 hours. After placing the pot for 7 days in a glass greenhouse, the ratio of the formed lesion area occupying the inoculated leaves was measured, and the preventive value was calculated in accordance with the following formula. Preventive value=[1−(treated plot lesion area ratio/untreated plot lesion area ratio)]×100
Further, from the preventive value at each agent concentration, synergy was calculated by using the Colby method (Colby S. R. 1976, Weeds 15, 20-22).

Setting [3] is: processing amount 5 mg/1 g seed.
Setting [4] is: processing amount 10 mg/1 g seed.

`CC(C)O/N=C(/CNC(=O)c1ccccc1C(F)(F)F)c1ncc(Cl)cc1Cl` [Compound No. 4]: the Preventive value is listed as 7 in data set [1] (Test Example 5), 70 in data set [2] (setting [3]) and 75 in data set [2] (setting [4]).
With `COc1c(Cl)cnc(C(CNC(=O)c2ccccc2C(F)(F)F)=NOC(C)C)c1Cl` [Compound No. 9], the results for the Preventive value in data set [1] (Test Example 6), in data set [2] (setting [3]) and in data set [2] (setting [4]) were 10, 75 and 77, respectively.
In general, melting point refers to the temperature, or range, at which the solid turns liquid. In the case of `CC#Cc1cnc(/C(CNC(=O)c2cn(C)nc2C(F)F)=N\OC(C)C)c(Cl)c1` [Compound No. 20, (Z)—N-[2-[3-chloro-5-(1-propynyl)pyridin-2-yl]-2-(isopropoxyimino)ethyl]-3-difluoromethyl-1-methyl-1H-pyrazole-4-carboxamide], the melting point lay in the range of 102 to 103 °C. For the same compound, in data set [1] (Test Example 5), the Preventive value is given as 0. Also, the Preventive value in data set [2] (setting [3]) is 90. The Preventive value in data set [2] (setting [4]) was 99.
`CC(C)O/N=C(/CNC(=O)c1cn(C)nc1C(F)F)c1ncc(C#CC2CC2)cc1Cl` [Compound No. 25, (Z)—N-[2-[3-chloro-5-(cyclopropylethynyl)pyridin-2-yl]-2-(isopropoxyimino)ethyl]-3-difluoromethyl-1-methyl-1H-pyrazole-4-carboxamide] came in with a melting point of 105 to 107 °C. In data set [1] (Test Example 6), the Preventive value was 8. Besides, in data set [2] (setting [3]), the Preventive value was 83. Moreover, the Preventive value in data set [2] (setting [4]) was 95.
`CC(C)ON=C(CNC(=O)c1ccccc1C(F)(F)F)c1ncc(C(F)(F)F)cc1Cl` [compound 14]: the Preventive value in data set [1] (Test Example 5) is 6; in data set [2] (setting [3]), 41; in data set [2] (setting [4]), 82.
As for `CON=C(CNC(=O)c1cn(C)nc1C(F)F)c1ncc(C#CC(C)(C)C)cc1Cl` [compound 28], the Preventive value in data set [1] (Test Example 5) was 9; in data set [2] (setting [3]) it was 77; in data set [2] (setting [4]) it was 88.
